Legend:
[1] = investigation cohort, 70 patients
[2] = atorvastatin and its metabolites; cited from earlier work

σ (SD), residual variability (exponential residual error): 0.085
ωQ (SD), between-subject variability (final PopPK model): 0.715
ωVc (SD), between-subject variability (final PopPK model): 1.18
ωVp (SD), between-subject variability (final PopPK model): 0.508
patients with myalgia at any time during follow-up [1]: 8.6%
SMILES: CC(C)c1c(C(=O)Nc2ccccc2)c(-c2ccccc2)c(-c2ccc(F)cc2)n1CC[C@@H](O)C[C@@H](O)CC(=O)O [atorvastatin]
fraction of the oral dose excreted in urine [2]: less than 1%
